How the values were obtained:
[1] = test system: Monochoria vaginalis, Presl.; experiment: Preemergence weed control under flooded paddy conditions, MOOVA (Monochoria); type: in vivo; settings: flooded paddy, rated three to four weeks after treatment; for MOOVA herbicidal rating / MOOVA herbicidal effect rating: preemergence; for herbicidal effect rating, MOOVA: preemergence weeds; for herbicidal effect rating, MOOVA: meaning of each grade not given here
Sagittaria pygmaea, L. = experiment: Preemergence weed control under flooded paddy conditions, SAGPY (Arrowhead (Pygmaea)); type: in vivo; settings: flooded paddy, rated three to four weeks after treatment; for SAGPY herbicidal rating / SAGPY herbicidal effect rating: preemergence; for herbicidal effect rating, SAGPY: preemergence weeds; for herbicidal effect rating, SAGPY: meaning of each grade not given here
[2] = test system: Oryza sativa, (L.) Tebonnet; experiment: Rice tolerance to post-transplant applications under flooded paddy conditions (Example 187), ORYSAT (Rice, Tebonnet); settings: rated three to four weeks after treatment
[3] = test system: Echinochloa oryzoides (Ard.) Fritsch.; experiment: Preemergence weed control under flooded paddy conditions, ECHORC (Watergrass (Calif.)); type: in vivo; settings: flooded paddy, rated three to four weeks after treatment; for ECHORC herbicidal rating / ECHORC herbicidal effect rating: preemergence; for herbicidal effect rating, ECHORC: preemergence weeds; for herbicidal effect rating, ECHORC: meaning of each grade not given here
Cyperus iria = experiment: Preemergence weed control under flooded paddy conditions, CYPIR (Rice Flatsedge); type: in vivo; settings: flooded paddy, rated three to four weeks after treatment; for CYPIR herbicidal rating / CYPIR herbicidal effect rating: preemergence; for herbicidal effect rating, CYPIR: preemergence weeds; for herbicidal effect rating, CYPIR: meaning of each grade not given here
[4] = test system: Cyperus serotinus, Rottb.; experiment: Preemergence weed control under flooded paddy conditions, CYPSE (Flatsedge); type: in vivo; settings: rated three to four weeks after treatment; for CYPSE herbicidal rating / CYPSE herbicidal effect rating: preemergence; for herbicidal effect rating, CYPSE: preemergence weeds; for herbicidal effect rating, CYPSE: meaning of each grade not given here

CN(C(=O)c1nsc2ccc(-n3c(=O)cc(C(F)(F)F)n(C)c3=O)cc12)S(=O)(=O)Cc1ccccc1 [Example 494, 1,2-Benzisothiazole-3-carboxamide, N-(benzylsulfonyl)-5-[3,6-dihydro-3-methyl-2,6-dioxo-4-(trifluoromethyl)-1(2H)-pyrimidinyl]-N-methyl-]
0.0: SAGPY herbicidal rating (Sagittaria pygmaea, L.; 0.0320 kg/ha) | SAGPY herbicidal rating (Sagittaria pygmaea, L.; 0.0620 kg/ha) | SAGPY herbicidal rating (Sagittaria pygmaea, L.; 0.1250 kg/ha) | ORYSAT herbicidal rating (rice tolerance) ([2]; 0.0320 kg/ha) | ORYSAT herbicidal rating (rice tolerance) ([2]; 0.0620 kg/ha) | ORYSAT herbicidal rating (rice tolerance) ([2]; 0.1250 kg/ha) | ORYSAT herbicidal rating (rice tolerance) ([2]; 0.2500 kg/ha) | ECHORC herbicidal rating ([3]; 0.0320 kg/ha) | CYPSE herbicidal rating ([4]; 0.1250 kg/ha)
4.0: MOOVA herbicidal rating ([1]; 0.0320 kg/ha) | MOOVA herbicidal rating ([1]; 0.0620 kg/ha) | CYPIR herbicidal rating (Cyperus iria; 0.0620 kg/ha)
2.0: ECHORC herbicidal rating ([3]; 0.0620 kg/ha)
6.0: MOOVA herbicidal rating ([1]; 0.2500 kg/ha)
5.0: MOOVA herbicidal rating ([1]; 0.1250 kg/ha) | CYPIR herbicidal rating (Cyperus iria; 0.1250 kg/ha) | CYPIR herbicidal rating (Cyperus iria; 0.2500 kg/ha)
3.0: SAGPY herbicidal rating (Sagittaria pygmaea, L.; 0.2500 kg/ha) | ECHORC herbicidal rating ([3]; 0.1250 kg/ha) | ECHORC herbicidal rating ([3]; 0.2500 kg/ha) | CYPIR herbicidal rating (Cyperus iria; 0.0320 kg/ha) | CYPSE herbicidal rating ([4]; 0.2500 kg/ha)

CC(C)=CCOCc1nsc2ccc(-n3c(=O)cc(C(F)(F)F)n(C)c3=O)cc12 [Example 210, 1-Methyl-3-{3-[(3-methyl-2-butenyloxy)methyl]-1,2-benzisothiazol-5-yl}-6-(trifluoromethyl)-2,4(1H,3H)-pyrimidinedione]
7.0: ORYSAT herbicidal effect rating ([2]; Rate 0.2500 kg/ha) | CYPIR herbicidal effect rating (Cyperus iria; Rate 0.0625 kg/ha) | CYPIR herbicidal effect rating (Cyperus iria; Rate 0.2500 kg/ha)
4.0: ORYSAT herbicidal effect rating ([2]; Rate 0.0625 kg/ha)
9.0: MOOVA herbicidal effect rating ([1]; Rate 0.0313 kg/ha) | MOOVA herbicidal effect rating ([1]; Rate 0.0625 kg/ha) | MOOVA herbicidal effect rating ([1]; Rate 0.1250 kg/ha) | MOOVA herbicidal effect rating ([1]; Rate 0.2500 kg/ha) | ECHORC herbicidal effect rating ([3]; Rate 0.0313 kg/ha) | ECHORC herbicidal effect rating ([3]; Rate 0.0625 kg/ha) | ECHORC herbicidal effect rating ([3]; Rate 0.1250 kg/ha) | ECHORC herbicidal effect rating ([3]; Rate 0.2500 kg/ha)
2.0: CYPIR herbicidal effect rating (Cyperus iria; Rate 0.0313 kg/ha)
0.0: SAGPY herbicidal effect rating (Sagittaria pygmaea, L.; Rate 0.0313 kg/ha) | SAGPY herbicidal effect rating (Sagittaria pygmaea, L.; Rate 0.0625 kg/ha) | SAGPY herbicidal effect rating (Sagittaria pygmaea, L.; Rate 0.1250 kg/ha) | SAGPY herbicidal effect rating (Sagittaria pygmaea, L.; Rate 0.2500 kg/ha) | CYPSE herbicidal effect rating ([4]; Rate 0.0313 kg/ha) | CYPSE herbicidal effect rating ([4]; Rate 0.0625 kg/ha) | CYPSE herbicidal effect rating ([4]; Rate 0.1250 kg/ha) | CYPSE herbicidal effect rating ([4]; Rate 0.2500 kg/ha)
6.0: ORYSAT herbicidal effect rating ([2]; Rate 0.1250 kg/ha)
3.0: ORYSAT herbicidal effect rating ([2]; Rate 0.0313 kg/ha)

Cn1c(C(F)(F)F)cc(=O)n(-c2ccc3snc(COCC(F)F)c3c2)c1=O [Example 203, 3-{3-[(2,2-Difluoroethoxy)methyl]-1,2-benzisothiazol-5-yl}-1-methyl-6-(trifluoromethyl)-2,4(1H,3H)-pyrimidinedione]
2.0: herbicidal effect rating, MOOVA ([1]; 0.1250 kg/ha) | herbicidal effect rating, SAGPY (Sagittaria pygmaea, L.; 0.1250 kg/ha) | herbicidal effect rating, ECHORC ([3]; 0.1250 kg/ha) | herbicidal effect rating, CYPSE ([4]; 0.1250 kg/ha)
7.0: herbicidal effect rating, ORYSAT (rice tolerance) ([2]; 0.2500 kg/ha)
4.0: herbicidal effect rating, SAGPY (Sagittaria pygmaea, L.; 0.2500 kg/ha) | herbicidal effect rating, ORYSAT (rice tolerance) ([2]; 0.0313 kg/ha) | herbicidal effect rating, ECHORC ([3]; 0.2500 kg/ha)
9.0: herbicidal effect rating, CYPIR (Cyperus iria; 0.0313 kg/ha) | herbicidal effect rating, CYPIR (Cyperus iria; 0.0625 kg/ha) | herbicidal effect rating, CYPIR (Cyperus iria; 0.1250 kg/ha) | herbicidal effect rating, CYPIR (Cyperus iria; 0.2500 kg/ha)
8.0: herbicidal effect rating, MOOVA ([1]; 0.2500 kg/ha)
6.0: herbicidal effect rating, ORYSAT (rice tolerance) ([2]; 0.0625 kg/ha) | herbicidal effect rating, ORYSAT (rice tolerance) ([2]; 0.1250 kg/ha) | herbicidal effect rating, CYPSE ([4]; 0.2500 kg/ha)
0.0: herbicidal effect rating, MOOVA ([1]; 0.0313 kg/ha) | herbicidal effect rating, MOOVA ([1]; 0.0625 kg/ha) | herbicidal effect rating, SAGPY (Sagittaria pygmaea, L.; 0.0313 kg/ha) | herbicidal effect rating, SAGPY (Sagittaria pygmaea, L.; 0.0625 kg/ha) | herbicidal effect rating, ECHORC ([3]; 0.0313 kg/ha) | herbicidal effect rating, ECHORC ([3]; 0.0625 kg/ha) | herbicidal effect rating, CYPSE ([4]; 0.0313 kg/ha) | herbicidal effect rating, CYPSE ([4]; 0.0625 kg/ha)

— patent EP0908457B1, “3-(1,2-benzisothiazol- and isoxazol-5-Y1)-2,4(1H,3H)-pyrimidinedione or thione and 3-(1,2-benzisothiazol- and isoxazol-5-y1)-4(3H)-pyrimidinone or thione herbicidal agents” (BASF AKTIENGESELLSCHAFT, priority 1997, dated 1999)
